These results are taken from ChEMBL document CHEMBL1759899, “Design and synthesis of several small-size HTLV-I protease inhibitors with different hydrophilicity profiles” (Bioorg Med Chem Lett, 2011).

Assay [1] relates to T1, Protease (Human T-cell leukemia virus type I), Q82134 [L40I].
T1 sequence (whole entry): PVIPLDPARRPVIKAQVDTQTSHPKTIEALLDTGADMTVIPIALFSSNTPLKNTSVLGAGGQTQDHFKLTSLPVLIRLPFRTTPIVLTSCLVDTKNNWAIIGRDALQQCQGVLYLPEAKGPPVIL
Briefly: Inhibition of HTLV-1 recombinant protease L40I mutant at 50 nM.

Assay [2] addresses Protease (Human immunodeficiency virus 1) (UniProt Q9YQ12). Briefly: Inhibition of HIV1 recombinant protease at 50 nM.
A further assay concerns the target Protease (Human T-cell leukemia virus type I, UniProt Q82134, L40I). Briefly: Inhibition of HTLV-1 recombinant protease L40I mutant.

Numbered stars: 1 amine (or outer) side, 2 acyl side, 3 side chain; on linkers, the order of the positions; unused ones are H or OH. Square brackets hold non-standard residues; d marks the D form. Peptide text beside a SMILES is read from it. * marks the point of attachment. X1 = O=C([C@@H](O)[C@H](Cc1ccccc1)N[*:1])[*:2]; Thz(5,5-Me2) = CC1(C)SCN[C@@H]1C(=O)O; Phg = N[C@H](C(=O)O)c1ccccc1; Tle = CC(C)(C)[C@H](N)C(=O)O; Dap = NC[C@H](N)C(=O)O; NHCH2tBu = CC(C)(C)CN*

Sequence of Protease (Human immunodeficiency virus 1) (Q9YQ12 as listed by the source): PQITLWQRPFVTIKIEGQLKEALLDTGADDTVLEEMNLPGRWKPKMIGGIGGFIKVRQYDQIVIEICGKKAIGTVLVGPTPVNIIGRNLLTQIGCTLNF

In the case of `CC(C)(C)CNC(=O)[C@H]1N(C(=O)[C@@H](O)[C@H](Cc2ccccc2)NC(=O)[C@@H](NC(=O)[C@@H](NC(=O)C(C)(CO)CO)c2ccccc2)C(C)(C)C)CSC1(C)C`, the inhibition was determined as 18% in assay [1] and 86% in assay [2].

On to `COC(=O)N[C@H](C(=O)N[C@H](C(=O)N[C@@H](Cc1ccccc1)[C@H](O)C(=O)N1CSC(C)(C)[C@H]1C(=O)NNC(C)(C)C)C(C)(C)C)c1ccccc1`, for which, at Protease, the IC50 is 10.4 nM. Moreover, the inhibition in assay [2] stood at 99%.

As to `CCN[C@H](C(=O)N[C@H](C(=O)N[C@@H](Cc1ccccc1)[C@H](O)C(=O)N1CSC(C)(C)[C@H]1C(=O)NCC(C)(C)C)C(C)(C)C)c1ccccc1`, at Protease, the IC50 worked out at 25.5 nM. Also, the inhibition was 38% in assay [1] and 99% in assay [2].

For `CN(C)[C@H](C(=O)N[C@H](C(=O)N[C@@H](Cc1ccccc1)[C@H](O)C(=O)N1CSC(C)(C)[C@H]1C(=O)NCC(C)(C)C)C(C)(C)C)c1ccccc1`, the figures for the inhibition in assay [1] and in assay [2] were 38% and 99%, respectively.

As to `CN[C@H](C(=O)N[C@H](C(=O)N[C@@H](Cc1ccccc1)[C@H](O)C(=O)N1CSC(C)(C)[C@H]1C(=O)NCC(C)(C)C)C(C)(C)C)c1ccccc1`, on Protease, the IC50 is 31.4 nM. For the same molecule, the figures for the inhibition in assay [1] and in assay [2] were 38% and greater than 99%, respectively.

For `COC(=O)N[C@H](C(=O)N[C@H](C(=O)N[C@@H](Cc1ccccc1)[C@H](O)C(=O)N1CSC(C)(C)[C@H]1C(=O)NCC(C)(C)O)C(C)(C)C)c1ccccc1`, the IC50 at Protease came to 39.1 nM. Also, the inhibition in assay [2] was 99%.

In the case of `CCN(CC)[C@H](C(=O)N[C@H](C(=O)N[C@@H](Cc1ccccc1)[C@H](O)C(=O)N1CSC(C)(C)[C@H]1C(=O)NCC(C)(C)C)C(C)(C)C)c1ccccc1`, the figures for the inhibition in assay [1] and in assay [2] were 39% and 98%, respectively.

`CC(C)(C)CNC(=O)[C@H]1N(C(=O)[C@@H](O)[C@H](Cc2ccccc2)NC(=O)[C@@H](NC(=O)[C@@H](NC(=O)[C@@H](N)CN)c2ccccc2)C(C)(C)C)CSC1(C)C` (H-[Dap][Phg][Tle][X1][Thz(5,5-Me2)]-NHCH2tBu): the inhibition in assay [1] was found to be 8%; in assay [2], 72%.

As to `CC(C)(C)CNC(=O)[C@H]1N(C(=O)[C@@H](O)[C@H](Cc2ccccc2)NC(=O)[C@@H](NC(=O)[C@@H](NC(=O)CCCN)c2ccccc2)C(C)(C)C)CSC1(C)C`, the 50% inhibitory concentration (IC50) on Protease stood at 25.4 nM. In assay [2], the inhibition is 99%.

As to `CC(C)(C)CNC(=O)[C@H]1N(C(=O)[C@@H](O)[C@H](Cc2ccccc2)NC(=O)[C@@H](NC(=O)[C@@H](NC(=O)CCN)c2ccccc2)C(C)(C)C)CSC1(C)C`, the 50% inhibitory concentration (IC50) at Protease was determined as 5.7 nM. Also, the inhibition in assay [1] came to 90%; in assay [2], 99%.

In the case of `COC(=O)N[C@H](C(=O)N[C@H](C(=O)N[C@@H](Cc1ccccc1)[C@H](O)C(=O)N1CSC(C)(C)[C@H]1C(=O)NCC(C)(C)C)C(C)(C)C)c1ccccc1`, the 50% inhibitory concentration (IC50) at Protease worked out at 7.2 nM. Also, the inhibition in assay [2] stood at 99%.

As to `CCCC(=O)N[C@H](C(=O)N[C@H](C(=O)N[C@@H](Cc1ccccc1)[C@H](O)C(=O)N1CSC(C)(C)[C@H]1C(=O)NCC(C)(C)C)C(C)(C)C)c1ccccc1`, in assay [2], the inhibition amounted to 99%.

Take `CC(C)(C)CNC(=O)[C@H]1N(C(=O)[C@@H](O)[C@H](Cc2ccccc2)NC(=O)[C@@H](NC(=O)[C@@H](NCc2ccccc2)c2ccccc2)C(C)(C)C)CSC1(C)C`: the results for the inhibition in assay [1] and in assay [2] were 44% and 92%, respectively.

On to `CC(C)(C)CNC(=O)[C@H]1N(C(=O)[C@@H](O)[C@H](Cc2ccccc2)NC(=O)[C@@H](NC(=O)[C@@H](N)c2ccccc2)C(C)(C)C)CSC1(C)C`, for which the inhibition in assay [1] is 38%.

For the molecule `CC(C)(C)CNC(=O)[C@H]1N(C(=O)[C@@H](O)[C@H](Cc2ccccc2)NC(=O)[C@@H](NC(=O)[C@@H](NC(=O)CN)c2ccccc2)C(C)(C)C)CSC1(C)C` (H-G[Phg][Tle][X1][Thz(5,5-Me2)]-NHCH2tBu), the IC50 at Protease was 41.1 nM. Moreover, the inhibition in assay [2] came out at 94%.

As usually defined, the inhibition is the change of the read-out against control, counted positive when it falls. Broadly, the IC50 is the midpoint of a concentration-inhibition curve.
